Laboratory results from patent publication US20100292289A1 (priority 2007, published 2010).
Read-outs that look alike come from different tables or passages of the source.

Experiments:
Assay type in all cases: cell-based
[1] = biological target: T1, CB1 receptor (Homo sapiens, UniProt P21554); assay: FLIPR calcium flux assay, agonist format, CB1; settings: Emax of reference agonist CP-55,940 as 100%; for % Activation Agonist CB1: 1 μM
Description: (§1) A FLIPR assay was conducted to monitor agonist and antagonist selectivity for compounds of the invention against the CBI and GLP-1 receptors. Percentage activation and percentage inhibition values were determined for each compound on each of the GPCRs listed above. Agonist selectivity was determined upon initial addition of compounds followed by 10 minute incubation at 25° C. Following compound incubation, reference agonists were added at EC80 to determine percentage inhibition.
(§2) Agonist percentage activation determinations were obtained by assaying sample compounds and referencing the Emax control for each of the GPCRs profiled. Antagonist percentage inhibition determinations were obtained by assaying sample compounds and referencing the control EC80 wells for each of the GPCRs profiled. The protocol design is as follows:
(§3) Unless specified otherwise, all sample compounds were diluted in 100% anhydrous DMSO including all serial dilutions. Occasionally sample compounds were provided in a different solvent, in this case all master stock dilutions were performed in the specified diluent. All control wells contained identical solvent final concentrations as sample compound wells.
(§4) Sample compounds were transferred from a master stock solution into a daughter plate that was used in the assay. Each sample compound was diluted into assay buffer (1×HBSS with 20 mM HEPES) at an appropriate concentration to obtain final concentrations.
(§5) All sample compounds were plated at 1 μM in duplicate for assaying against all GPCRs. Reference agonists were handled as mentioned above serving as assay control. These reference agonists were handled as described above for both EMax and EC80 control wells. Assay was read for 90 seconds using the FLIPRTETRA. (This assay run added sample compounds and reference agonist to respective rows.) At the completion of the first “Single Addition” assay run, assay plate was removed from the FLIPRTetra and placed at 25° C. for 10 minutes.
(§6) All plates were subjected to appropriate baseline corrections. Once baseline corrections were processed, maximum fluorescence values were exported and data manipulated to calculate percentage activation, percentage inhibition, Z′, EC50, and IC50. Percentage activation data was calculated using Emax as 100% control. Percentage inhibition was calculated using EC80 as 0% inhibition.

[2] = biological target: T2, GLP-1 receptor (Homo sapiens, UniProt P43220); assay: FLIPR calcium flux assay, agonist format, GLP-1; settings: Emax of reference ligand Glucagon as 100%; for % Activation Agonist GLP-1: 1 μM
Description: as §1, §2, §3, §4, §5, §6

[3] = biological target: T1, CB1 receptor; assay: FLIPR calcium flux assay, antagonist format, CB1; settings: reference agonist CP-55,940 at EC80 as 0% inhibition; for % Inhibition Antagonist CB1: 1 μM
Description: as §1, §2, §3, §4
(§7) Using the EC50 values determined previously, stimulated all pre-incubated sample compound and reference antagonist (if applicable) wells with EC80 of reference agonist. Read for 90 seconds using the FLIPRTETRA. (This assay added reference agonist to respective wells—then fluorescence measurements were collected to calculate percentage inhibition.)
as §6

[4] = biological target: T2, GLP-1 receptor; assay: FLIPR calcium flux assay, antagonist format, GLP-1; settings: for inhibition at 1 µM: read-out: % Inhibition Antagonist GLP-1
Description: as §1, §2, §3, §4, §7, §6

[5] = 1 μM, reference ligand Glucagon at EC80 as 0% inhibition

T2 sequence (P43220 24-463): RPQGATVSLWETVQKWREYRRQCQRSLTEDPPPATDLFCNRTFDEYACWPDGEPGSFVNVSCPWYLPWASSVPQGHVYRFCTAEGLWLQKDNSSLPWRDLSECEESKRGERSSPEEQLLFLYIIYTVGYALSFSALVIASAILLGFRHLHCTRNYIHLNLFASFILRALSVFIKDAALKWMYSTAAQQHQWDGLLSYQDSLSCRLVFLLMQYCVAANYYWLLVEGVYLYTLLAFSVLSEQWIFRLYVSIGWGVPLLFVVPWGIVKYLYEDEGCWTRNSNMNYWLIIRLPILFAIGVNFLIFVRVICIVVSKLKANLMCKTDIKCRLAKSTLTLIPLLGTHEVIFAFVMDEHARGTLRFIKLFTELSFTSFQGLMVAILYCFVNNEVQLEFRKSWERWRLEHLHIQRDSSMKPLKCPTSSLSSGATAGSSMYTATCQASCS
T1 sequence (P21554 whole entry): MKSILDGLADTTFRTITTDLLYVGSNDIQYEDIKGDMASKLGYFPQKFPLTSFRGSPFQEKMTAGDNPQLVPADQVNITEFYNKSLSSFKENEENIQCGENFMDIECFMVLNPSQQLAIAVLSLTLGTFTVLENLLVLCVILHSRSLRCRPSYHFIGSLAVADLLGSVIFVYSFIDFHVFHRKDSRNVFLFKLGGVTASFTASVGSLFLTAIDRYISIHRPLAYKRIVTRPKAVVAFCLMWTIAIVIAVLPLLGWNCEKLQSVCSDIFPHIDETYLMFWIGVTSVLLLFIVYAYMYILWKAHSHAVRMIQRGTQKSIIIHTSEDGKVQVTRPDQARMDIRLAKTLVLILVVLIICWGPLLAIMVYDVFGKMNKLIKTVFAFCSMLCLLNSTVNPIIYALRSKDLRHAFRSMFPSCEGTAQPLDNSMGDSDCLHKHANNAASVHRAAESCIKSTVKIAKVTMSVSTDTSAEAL

Structure (SMILES) | activation at 1 µM [1] | activation at 1 µM [2] | inhibition at 1 µM [3] | inhibition at 1 µM [4, 5] | % Activation Agonist CB1 [1] | % Activation Agonist GLP-1 [2] | % Inhibition Antagonist CB1 [3] | % Inhibition Antagonist GLP-1 [4, 5] | inhibition at 1 µM [4]
CC(C(=O)N(C)CC[C@H](Oc1ccc(C(F)(F)F)cc1)c1ccccc1)c1ccc(CN(C)C)cc1 (stereo partly shown) [Compound 25b] | 0.2% | -3.3% | 15.2% | 6.9% | – | – | – | – | –
CN(Cc1ccccc1)C1CCN(C(C(=O)NCC[C@@H](Oc2ccc(C(F)(F)F)cc2)c2ccccc2)c2nc(-c3ccc(C(F)(F)F)cc3)no2)CC1 (stereo partly shown) [Compound 16] | 6.9% | 21.3% | – | – | – | – | – | – | –
O=C(NCC[C@@H](Oc1ccc(C(F)(F)F)cc1)c1ccccc1)C(c1nc(-c2ccc(C(F)(F)F)cc2)no1)N1CCC[C@@H](COc2ccc(C(F)(F)F)cc2)C1 (stereo partly shown) [Compound 19] | – | – | – | – | 0.5% | 6.5% | – | – | –
CC(C(=O)N(C)CC[C@@H](Oc1ccc(C(F)(F)F)cc1)c1ccccc1)c1ccc(CN(C)C)cc1 (stereo partly shown) [Compound 25a] | 0.8% | -2.7% | 79.9% | 5.7% | – | – | – | – | –
C[C@H]1CCN(C(C(=O)NCCOc2ccc(C(F)(F)F)cc2)c2nc(-c3ccc(C(F)(F)F)cc3)no2)C[C@@H]1COc1ccc(C(F)(F)F)cc1 (stereo partly shown) [Compound 20] | – | – | – | – | 1.9% | 7.5% | 14.5% | −14.4% | –
C[C@@H](C(=O)N(C)CC[C@H](Oc1ccc(C(F)(F)F)cc1)c1ccccc1)c1ccc(C(F)(F)F)cc1 [Compound 33e] | 1.7% | 0.4% | 0.8% | 9.4% | – | – | – | – | –
CC(C)Cc1ccc(CC(=O)N(C)CC[C@@H](Oc2ccc(C(F)(F)F)cc2)c2ccccc2)cc1 [Compound 32a] | 4.5% | 2.9% | 90.7% | 0.8% | – | – | – | – | –
CN(CCC(Oc1ccc(C(F)(F)F)cc1)c1ccccc1)C(=O)C1CCn2c(C(=O)c3ccccc3)ccc21 (stereo not shown) [Compound 13] | 0.9% | 0.8% | 37.7% | -15.4% | – | – | – | – | –
CC(C)Cc1ccccc1C(C)C(=O)N(C)CC[C@@H](Oc1ccc(C(F)(F)F)cc1)c1ccccc1 (stereo partly shown) [Compound 38a] | – | – | 98.5% | – | – | – | – | – | -20.2%
COc1ccc2c(c1)c(CC(=O)NCC[C@@H](Oc1ccc(C(F)(F)F)cc1)c1ccccc1)c(C)n2C(=O)c1ccc(Cl)cc1 [Compound 7a] | -0.5% | 4.2% | 46.9% | 0% | – | – | – | – | –
CC(C(=O)N(C)CC[C@H](Oc1ccc(C(F)(F)F)cc1)c1ccccc1)c1ccc(C(F)(F)F)cc1 (stereo partly shown) [Compound 33b] | 0.5% | 17.6% | 45.8% | ~0% | – | – | – | – | –
CC(C)Cc1ccc(C2(C(=O)N(C)CC[C@@H](Oc3ccc(C(F)(F)F)cc3)c3ccccc3)CC2)cc1 [Compound 36a] | -1.2% | 4.4% | 59.9% | 11% | – | – | – | – | –
C[C@H](C(=O)N(C)CC[C@H](Oc1ccc(C(F)(F)F)cc1)c1ccccc1)c1ccc(C(F)(F)F)cc1 [Compound 33f] | -0.5% | -3.5% | 34% | 11.5% | – | – | – | – | –
CN(Cc1ccccc1)C1CCN(C(C(=O)NCCOc2ccc(C(F)(F)F)cc2)c2nc(-c3ccc(C(F)(F)F)cc3)no2)CC1 (stereo not shown) [Compound 24] | – | – | – | – | 1.6% | 5.9% | 4.6% | −1.6% | –
CC(C(=O)N(C)CC[C@H](Oc1ccc(C(F)(F)F)cc1)c1ccccc1)c1ccc(CC2CCCC2=O)cc1 (stereo partly shown) [Compound 29b] | – | – | – | – | −0.2% | 6.2% | 31.2% | 0.0% | –
CCc1ccc(C(C)C(=O)N(C)CC[C@@H](Oc2ccc(C(F)(F)F)cc2)c2ccccc2)cc1 (stereo partly shown) [Compound 34a] | -2.9% | -0.8% | 99% | -1% | – | – | – | – | –
